The source of these data is US20230181564A1, “Potent Tetrahydroquinolone Eliminates Apicomplexan Parasites” (The University of Chicago, priority 2020, published 2023).

For data set [1], the system named is Human Foreskin Fibroblast (HFF). The data set is described as follows: Cytotoxicity assay with WST-1 on HFF. The class given is cell-based. The protocol:
PBS Sol/Toxicity pH7.4 refers to solubility of the compound in Phosphate Buffered Saline (PBS) at pH7.4. […] Tachy/Brady IC50 was determined in studies in which cultures of parasites in HFF were treated with varying concentrations of the compound and there was 50% inhibition of the replication (number) of parasites. Parasites were RH-YFP expressing tachyzoites (Tachy) and EGS (Brady) strains. Studies of effects of inhibitors on HFF or on T.gondii tachyzoites were performed with triplicate wells in at least two biological replicate experiments. Studies of effects on bradyzoites were performed at least twice in at least two biological replicate experiments. Compounds with much less inhibition of mammalian than T. gondii cytochrome bc in the saffarine enzyme assay (indicated by **) provide potential to further develop compounds, if unanticipated toxicity occurs from JAG21.
Cytotoxicity Assays in parallel with RH Strain T.gondii in vitro studies. Toxicity assays used WST-1 cell proliferation reagent (Roche) as in Fomovska et al. (2012). HFF were grown on a flat, clear-bottomed, black 96-well plate. Confluent HFF were treated with inhibitory compounds at concentrations of 10 μM and 50 μM. Compounds were diluted in IMDM-C, and 20 μL were added to each designated well, with triplicates for each condition. A gradient with 2 fold-decreasing concentrations of DMSO from 10% to 0% in colorless, translucent IMDM-C was used as a control. The plate was incubated for 72 hours at 37° C. 10 μL WST-1 reagent (Roche) were added to each well. Cells were incubated for 30-60 minutes. Absorbance was read using a fluorimeter at 420 nm. A higher degree of color change (and absorbance) indicated mitochondrial activity and cell viability.
Because T. gondii grows inside cells, if a compound were toxic to host HFF then it would make the compound appear to be spuriously effective (Fomovska et al. 2012; Fomovska et al. 2012a), when in actuality only toxicity for the host cell would be measured. Cytotoxicity to HFF was therefore assessed for all compounds at 10 μM. Results of this experiment are in Table 1, toxicity column. A two-way ANOVA and subsequent pairwise comparison found none of the differences in absorbance, compared to the media-DMSO vehicle controls, to be statistically significant (p>0.05). Most of these compounds are not toxic at 10 μM (the limit of solubility) and that cytotoxicity to cells can be attributed to DMSO in the solution, not the compound.
(In general: Formazan colour is commonly taken as a measure of viable cells.)

Data set [2] addresses T1, P. falciparum bc1 complex cytochrome c reductase (Pfbc1) (Plasmodium falciparum, UniProt Q02768).
T1 construct: Parasite extract was then prepared by disruption with a sonicating probe; endogenous in cells; host or cells: P. falciparum 3D7 blood-stage parasites freed by saponin, sonicated extract
T1 sequence (Q02768 1-376): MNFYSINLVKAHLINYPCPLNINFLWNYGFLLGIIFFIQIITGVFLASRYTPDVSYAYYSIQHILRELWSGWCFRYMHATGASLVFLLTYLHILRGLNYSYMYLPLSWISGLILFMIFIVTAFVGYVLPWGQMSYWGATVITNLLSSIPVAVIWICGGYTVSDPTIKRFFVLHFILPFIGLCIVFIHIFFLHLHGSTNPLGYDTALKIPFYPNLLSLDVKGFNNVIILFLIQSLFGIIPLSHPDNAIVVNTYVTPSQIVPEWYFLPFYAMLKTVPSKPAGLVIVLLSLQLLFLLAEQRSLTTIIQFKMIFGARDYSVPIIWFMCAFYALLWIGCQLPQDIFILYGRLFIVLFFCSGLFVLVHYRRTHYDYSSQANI
As to the kind of experiment: Pfbc1 native assay (cytochrome c reduction by parasite extract). Conditions: atovaquone 1 μM positive control, mean±S.D., N=4. The class given is biochemical. The protocol: Enzyme assays. P. falciparum 3D7 strain were obtained from the Liverpool School of Tropical Medicine. Protease cocktail inhibitor was obtained from Roche. Bradford protein assay dye reagent was obtained from Bio-Rad. All other reagents were obtained from Sigma-Aldrich. Decylubiquinol was produced as per Fisher et al. (2009). In brief, 25 mg of decylubiquinone were dissolved in 400 μl of nitrogen-saturated hexane. An equal volume of aqueous 1 M sodium dithionite was added, and the mixture vortexed until colorless. […] Concentrations of decylubiquinol was determined spectrophotometrically on a Cary 300 Bio UV/visible spectrophotometer (Varian, UK) from absolute spectra, using ε288-320=8.1 mM-1·cm^−1. […]
The protocol for the preparation of parasite extract was adapted from Fisher et al. Free parasites were prepared from infected erythrocytes pooled from five T75 flasks, by adding 5 volumes of 0.15% (w/v) saponin in phosphate-buffered saline (137 mM NaCl, 2.7 mM KCl, 1.76 mM K2HPO4, 8.0 mM Na2HPO4, 5.5 mM D-glucose, pH 7.4) for 5 min, followed by three washes by centrifugation in RPMI containing HEPES (25 mM), and a final resuspension in potassium phosphate buffer (50 mM K2HPO4, 50 mM KH2PO4, 2 mM EDTA, pH7.4) containing a protease inhibitor cocktail (Complete Mini; Roche). […] The protein concentration of the parasite extract was determined by Bradford protein assay (Bio-Rad). […]

For orientation: inhibition means the relative decrease from the control value, in per cent. Consider `Cc1[nH]c2c(c(=O)c1-c1ccc(Oc3ccc(OC(F)(F)F)cc3)cc1)CCCC2` [JAG021, 2-methyl-3-(4-(4-(trifluoromethoxy)phenoxy)phenyl)-5,6,7,8-tetrahydroquinolin-4-one], for which, in data set [1], the “Toxicity to human cells in the in vitro model (HFF)” value is recorded as “not toxic”. The compound also came in with an inhibition at 1 µM in data set [2] of 86.4 ± 3.2%.
